This is an account of results in US8329926B2, “Antiviral compounds” (Gilead Sciences, Inc., priority 2004, dated 2012).

One data set concerns mtDNA. Kind of data set: mtDNA IC50. The data set is classed as cell-based.
The test system of the next data set is HIV-1. Kind of data set: Anti-HIV-1 activity (EC50). The format is cell-based.
The test system of the next data set is K65R. The note with it: FIG. 1.
Another data set has as its system M184V. The note with it: FIG. 1.
The test system of another data set is 6TAM. The following applies: FIG. 1.

The structures appear in SMILES notation. Where a name gives a salt, the structure may show the parent alone. Read-outs that look alike come from different tables or passages of the source. Some results are limits rather than exact numbers.

The molecule `Nc1ncnc2c1ncn2[C@@H]1O[C@H](OCP(=O)(O)O)C=C1F` [2′F-d4AP, (2′R, 5′R)-9-(3-fluoro-2,5-dihydro-5-phosphonomethoxy-2-furanyl)adenine di sodium salt] yielded a CC50 in the data set with MT-2 below 1000 µM. Also, the IC50 in the data set on mtDNA (FIG. 2, read-out: IC50 [uM] mtDNA) was 100 to 1000 µM. Also, the EC50 in the data set on HIV-1 (read-out: EC50 [uM] HIV-1) lay within 1 to 100 µM.

With `Nc1nc(N)c2ncn([C@@H]3O[C@H](OCP(=O)(O)O)C=C3F)c2n1` [2′F-d4DAPP], the EC50 in the data set with HIV-1 (read-out: EC50 [uM] HIV-1) is 100 to 1000 µM.

As to `C[C@H](Cn1cnc2c(N)ncnc21)OCP(=O)(O)O` [Tenofovir], the CC50 with MT-2 was below 1000 µM. In addition, in the data set with K65R, the “Resistance - fold EC50 K65R” value was “+++ (+++=1-100)”. Moreover, in the data set on M184V, the “Resistance - fold EC50 M184V” value is given as “++++ (++++=0.01-1)”. For the same molecule, the IC50 in the data set on mtDNA (FIG. 1, read-out: mtDNA 1050) was in the range of 100 to 1000 µM. For the same molecule, the EC50 in the data set on HIV-1 (FIG. 1, read-out: EC50 [uM] HIV-1) fell in the range of 1 to 100 µM. Further, in the data set with 6TAM, the “Resistance - fold EC50 6TAM” value is recorded as “+++ (+++=1-100)”.

For the molecule `CCCOC(=O)[C@H](C)NP(=O)(CO[C@@H]1C=C(F)[C@H](n2cnc3c(N)ncnc32)O1)N[C@@H](C)C(=O)OCCC` [drawing 144 (Ala) n-Propyl], the EC50 with HIV-1 (Human immunodeficiency virus 1, FIG. 5, prodrugs by R1 (aa) and R2 (ester), read-out: EC50) fell in the range of 0.1 to 1 µM.

Broadly, the EC50 is the midpoint of the concentration-response curve.
